According to the supplement of paper PMC11208160:

assay: recombinant UMI read abundance after kanamycin selection (control-corrected) (log10(CPM+1)); higher = more efficient recombination; extreme values may be limits of the assay; sequences stand for … in AGTGCAGAGAAAATCGGCCAGTTTTCTCTGCCTGCAGTCCGCATGCCGTGGGACCCCTTGGGTTCTAACCTGTTGCCTAGATTTATGCAGCGGACTGCCTTTCTCCCAAAGTGATAAACCGG…AGGTTGGTTTCACT; site = the 11-nt donor
Outline: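 Pooled Escherichia coli screen of donor and donor-binding-loop pairs for the IS621 bridge recombinase. Each pair sits with a 12-nt UMI on a plasmid carrying a promoterless kanamycin gene. The library was co-electroporated with a target plasmid encoding a fixed target and T7-inducible recombinase, then plated with IPTG (0.07 mM) plus kanamycin, or unselected, each in two replicates. Recombinant UMIs were PCR-amplified across the donor–target junction and sequenced. Counts became CPM, averaged over replicates, scaled by control-derived factors and reported as log10(CPM+1).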
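Note: IS621 bridge recombinase in Escherichia coli cells against a fixed T5 target plasmid.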

| Sequence | recombinant UMI read abundance (log10) |
| --- | --- |
| GCAAAGCCATGGACCGGTTTTCCCGGTAATCCGTATTTGGG (site GCAAAGCCTCC) | 0.00379 |
| GCAAAGCCATGGACCGGTTTTCCCGGTAATCCGTATTTGGG (site GCCAAGCCTCC) | 0.00875 |
| GCAAAGCCATGGACCGGTTTTCCCGGTAATCCGTATTTGGG (site GCGAAGCCTCC) | 0.00619 |
| GCAAAGCCATGGACCGGTTTTCCCGGTAATCCGTATTTGGG (site GCTAAGCCTCC) | 0.0133 |
| GCAACATCATGGACCGGTTTTCCCGGTAATCCGTATTTGCC (site GCAACATCTGG) | 0.611 |
| GCAAGAACATGGACCGGTTTTCCCGGTAATCCGTATTTGAG (site GCAAGAACTCT) | 2.56 |
| GCAATAACATGGACCGGTTTTCCCGGTAATCCGTATTTGGT (site GCAATAACTAC) | 2.38 |
| GCAATCGCATGGACCGGTTTTCCCGGTAATCCGTATTTGAG (site GCAATCGCTCT) | 2.29 |
| GCACAGCCATGGACCGGTTTTCCCGGTAATCCGTATTTGTT (site GCACAGCCTAA) | 1.47 |
| GCACCAACATGGACCGGTTTTCCCGGTAATCCGTATTTGCC (site GCACCAACTGG) | 0.762 |
| GCACCGACATGGACCGGTTTTCCCGGTAATCCGTATTTGAA (site GCACCGACTTT) | 0.965 |
| GCACGAACATGGACCGGTTTTCCCGGTAATCCGTATTTGTC (site ACACGAACTGA) | 1.48 |
| GCACGAACATGGACCGGTTTTCCCGGTAATCCGTATTTGTC (site CCACGAACTGA) | 2.19 |
| GCACGAACATGGACCGGTTTTCCCGGTAATCCGTATTTGTC (site GCACGAACTGA) | 2.56 |
| GCACGAACATGGACCGGTTTTCCCGGTAATCCGTATTTGTC (site TCACGAACTGA) | 0.552 |
| GCACGTGCATGGACCGGTTTTCCCGGTAATCCGTATTTGGC (site GCACGTGCTGC) | 2.23 |

| Sequence | recombinant UMI read abundance (log10) |
| --- | --- |
| GCACTCTCATGGACCGGTTTTCCCGGTAATCCGTATTTGGG (site GCACTCTCTCC) | 0.647 |
| GCAGAGTCATGGACCGGTTTTCCCGGTAATCCGTATTTGTA (site GCAGAGTCTTA) | 3.17 |
| GCAGATCCATGGACCGGTTTTCCCGGTAATCCGTATTTGTC (site GCAGATCCTGA) | 0 |
| GCAGCGTCATGGACCGGTTTTCCCGGTAATCCGTATTTGGA (site GCAGCGTCTTC) | 2.37 |
| GCAGGCCCATGGACCGGTTTTCCCGGTAATCCGTATTTGCC (site GCAGGCCCTGG) | 0.86 |
| GCAGTGACATGGACCGGTTTTCCCGGTAATCCGTATTTGCG (site GCAGTGACTCG) | 2.18 |
| GCAGTTTCATGGACCGGTTTTCCCGGTAATCCGTATTTGCA (site GCAGTTTCTTG) | 2.59 |
| GCATACTCATGGACCGGTTTTCCCGGTAATCCGTATTTGCA (site ACATACTCTTG) | 2.41 |
| GCATACTCATGGACCGGTTTTCCCGGTAATCCGTATTTGCA (site CCATACTCTTG) | 2.9 |
| GCATACTCATGGACCGGTTTTCCCGGTAATCCGTATTTGCA (site GCATACTCTTG) | 2.96 |
| GCATACTCATGGACCGGTTTTCCCGGTAATCCGTATTTGCA (site TCATACTCTTG) | 2.61 |
| GCATAGTCATGGACCGGTTTTCCCGGTAATCCGTATTTGTT (site GCATAGTCTAA) | 3.29 |
| GCATCGGCATGGACCGGTTTTCCCGGTAATCCGTATTTGAC (site GCATCGGCTGT) | 2.09 |
| GCATGCCCATGGACCGGTTTTCCCGGTAATCCGTATTTGAT (site GCATGCCCTAT) | 0.197 |
| GCATGCCCATGGACCGGTTTTCCCGGTAATCCGTATTTGAT (site GCCTGCCCTAT) | 0.226 |
| GCATGCCCATGGACCGGTTTTCCCGGTAATCCGTATTTGAT (site GCGTGCCCTAT) | 0.0164 |
